Laboratory results taken from US20100093722A1, “HETEROARYL AND PHENYL SUBSTITUTED THIENO[2,3-d]PYRIMIDINES AND THEIR USE AS ADENOSINE A2a RECEPTOR ANTAGONISTS” (priority 2008, published 2010).
pKi: −log10 of the molar value.

Legend:
[1] = target: T1, human adenosine A1 receptor (Homo sapiens, UniProt P30542); assay: Adenosine A1 Receptor Functional Assay (A1GAL2); format: cell-based; details: CHO-K1 cells overexpressing human A1, cAMP inducible beta-galactosidase reporter, 4 nM r-PIA/1 uM Forskolin challenge
T1 construct: expressed in transfected cells; host or cells: CHO-K1
T1 sequence (P30542 1-326): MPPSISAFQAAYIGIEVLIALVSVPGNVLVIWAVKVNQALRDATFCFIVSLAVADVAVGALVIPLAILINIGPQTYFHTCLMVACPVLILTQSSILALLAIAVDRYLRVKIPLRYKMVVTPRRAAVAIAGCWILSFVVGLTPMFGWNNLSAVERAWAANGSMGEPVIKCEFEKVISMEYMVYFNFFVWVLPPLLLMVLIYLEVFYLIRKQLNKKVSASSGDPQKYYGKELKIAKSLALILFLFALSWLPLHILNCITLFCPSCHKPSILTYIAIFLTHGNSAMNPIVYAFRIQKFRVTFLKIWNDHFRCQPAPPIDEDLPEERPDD
Method: Adenosine A1 Receptor Functional Assay (A1GAL2)
To initiate the functional assay, cryopreserved CHO-K1 cells overexpressing the human adenosine A1 receptor and containing a cAMP inducible beta-galactosidase reporter gene were thawed, centrifuged, DMSO containing media removed, and then seeded with fresh culture media into clear 384-well tissue culture treated plates (BD #353961) at a concentration of 10K cells/well. Prior to assay, these plates were cultured for two days at 37+ C., 5% CO2, 90% Rh. On the day of the functional assay, culture media was removed and replaced with 45 uL assay medium (Hams/F-12 Modified (Mediatech #10-080CV) supplemented w/0.1% BSA). Test compounds were diluted and 11 point curves created at a 1000× concentration in 100% DMSO. Immediately after addition of assay media to the cell plates, 50 nL of the appropriate test compound antagonist or agonist control curves were added to cell plates using a Cartesian Hummingbird. Compound curves were allowed to incubate at room temperature on cell plates for approximately 15 minutes before addition of a 4 nM r-PIA (Sigma P4532)/1 uM Forskolin (Sigma F3917) agonist challenge (5 uL volume). A control curve of r-PIA in 1 uM Forskolin, a DMSO/Media control, and a single dose of Forskolin were also included on each plate. After additions, cell plates were allowed to incubate at 37° C., 5% CO2, 90% Rh for 5.5-6 hours. After incubation, media was removed, and cell plates were washed 1× 50 uL with DPBS w/o Ca & Mg (Mediatech 21-031-CV). Into dry wells, 20 uL of 1× Reporter Lysis Buffer (Promega E3971 (diluted in dH2O from 5× stock)) was added to each well and plates frozen at −20° C. overnight. For β-galactosidase enzyme calorimetric assay, plates were thawed out at room temperature and 20 μL 2× assay buffer (Promega) was added to each well. Color was allowed to develop at 37° C., 5% CO2, 90% Rh for 1-1.5 h or until reasonable signal appeared. The calorimetric reaction was stopped with the addition of 60 μL/well 1M sodium carbonate. Plates were counted at 405 nm on a SpectraMax Microplate Reader (Molecular Devices). Data was analyzed in Microsoft Excel and IC/EC50 curves were fit using a standardized macro.

[2] = target: T2, human adenosine A2a receptor (Homo sapiens, UniProt P29274); assay: Adenosine A2a Receptor Functional Assay (A2AGAL2); format: cell-based; details: CHO-K1 cells overexpressing human A2a, cAMP inducible beta-galactosidase reporter, 15 nM NECA agonist challenge
T2 construct: expressed in transfected cells; host or cells: CHO-K1
T2 sequence (P29274 whole entry): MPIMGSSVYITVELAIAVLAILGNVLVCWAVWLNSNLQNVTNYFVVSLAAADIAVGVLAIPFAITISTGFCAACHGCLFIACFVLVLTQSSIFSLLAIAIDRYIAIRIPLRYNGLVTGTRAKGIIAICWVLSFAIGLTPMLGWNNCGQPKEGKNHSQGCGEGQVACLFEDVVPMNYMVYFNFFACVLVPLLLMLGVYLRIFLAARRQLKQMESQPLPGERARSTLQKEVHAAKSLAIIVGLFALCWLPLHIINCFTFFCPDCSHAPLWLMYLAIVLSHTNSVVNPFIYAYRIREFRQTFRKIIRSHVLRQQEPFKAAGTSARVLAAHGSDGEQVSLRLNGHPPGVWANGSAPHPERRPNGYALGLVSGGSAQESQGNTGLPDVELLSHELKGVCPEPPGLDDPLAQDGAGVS
Method: Adenosine A2a Receptor Functional Assay (A2AGAL2)
To initiate the functional assay, cryopreserved CHO-K1 cells overexpressing the human adenosine A2a receptor and containing a cAMP inducible beta-galactosidase reporter gene were thawed, centrifuged, DMSO containing media removed, and then seeded with fresh culture media into clear 384-well tissue culture treated plates (BD #353961) at a concentration of 10K cells/well. Prior to assay, these plates were cultured for two days at 37° C., 5% CO2, 90% Rh. On the day of the functional assay, culture media was removed and replaced with 45 uL assay medium (Hams/F-12 Modified (Mediatech #10-080CV) supplemented w/0.1% BSA). Test compounds were diluted and 11 point curves created at a 1000× concentration in 100% DMSO. Immediately after addition of assay media to the cell plates, 50 nL of the appropriate test compound antagonist or agonist control curves were added to cell plates using a Cartesian Hummingbird. Compound curves were allowed to incubate at room temperature on cell plates for approximately 15 minutes before addition of a 15 nM NECA (Sigma E2387) agonist challenge (5 uL volume). A control curve of NECA, a DMSO/Media control, and a single dose of Forskolin (Sigma F3917) were also included on each plate. After additions, cell plates were allowed to incubate at 37° C., 5% CO2, 90% Rh for 5.5-6 hours. After incubation, media was removed, and cell plates were washed 1× 50 uL with DPBS w/o Ca & Mg (Mediatech 21-031-CV). Into dry wells, 20 uL of 1× Reporter Lysis Buffer (Promega E3971 (diluted in dH2O from 5× stock)) was added to each well and plates frozen at −20° C. overnight. For β-galactosidase enzyme calorimetric assay, plates were thawed out at room temperature and 20 μL 2× assay buffer (Promega) was added to each well. Color was allowed to develop at 37° C., 5% CO2, 90% Rh for 1-1.5 h or until reasonable signal appeared. The calorimetric reaction was stopped with the addition of 60 μL/well 1M sodium carbonate. Plates were counted at 405 nm on a SpectraMax Microplate Reader (Molecular Devices). Data was analyzed in Microsoft Excel and IC/EC50 curves were fit using a standardized macro.

[3] = target: T3, human A2a adenosine receptor (Homo sapiens, UniProt P29274); assay: Ligand Binding Assay for Adenosine A2a Receptor (A2A-B); details: plasma membrane of HEK293 cells containing human A2a receptor, radioligand [3H]CGS21680
T3 construct: purchased PerkinElmer RB-HA2a; host or cells: HEK293 plasma membrane
T3 sequence (P29274 whole entry): as above
Method: Ligand Binding Assay for Adenosine A2a Receptor
Ligand binding assay of adenosine A2a receptor was performed using plasma membrane of HEK293 cells containing human A2a adenosine receptor (PerkinElmer, RB-HA2a) and radioligand [^3H]CGS21680 (PerkinElmer, NET1021). Assay was set up in 96-well polypropylene plate in total volume of 200 μL by sequentially adding 20 μL 1:20 diluted membrane, 130 μL assay buffer (50 mM Tris.HCl, pH 7.4 10 mM MgCl2, 1 mM EDTA) containing [^3H] CGS21680, 50 μL diluted compound (4×) or vehicle control in assay buffer. Nonspecific binding was determined by […] NECA. Reaction was carried out at room temperature for 2 hours before filtering through 96-well GF/C filter plate pre-soaked in 50 mM Tris.HCl, pH 7.4 containing 0.3% polyethylenimine. Plates were then washed 5 times with cold 50 mM Tris.HCl, pH 7.4, dried and sealed at the bottom. Microscintillation fluid 30 μL was added to each well and the top sealed. Plates were counted on Packard Topcount for [^3H]. Data was analyzed in Microsoft Excel and GraphPad Prism programs. (Varani, K.; Gessi, S.; Dalpiaz, A.; Borea, P. A. British Journal of Pharmacology, 1996, 117, 1693)

| Compound | pKi [1] | pKi [2] | pKi [3] |
| --- | --- | --- | --- |
| N#Cc1cccc(-c2nc(N)c3cc(Cc4ncccc4F)sc3n2)c1 [Example 38, 3-[4-Amino-6-(3-fluoro-pyridin-2-ylmethyl)-thieno[2,3-d]pyrimidin-2-yl]-benzonitrile] | 7.52 | 8.85 | 7.24 |
| COc1ncccc1Cc1cc2c(N)nc(-c3cccc(C#N)c3)nc2s1 [Example 10, 3-[4-Amino-6-(2-methoxy-pyridin-3-ylmethyl)-thieno[2,3-d]pyrimidin-2-yl]-benzonitrile] | 6.99 | 7.84 | 7.47 |
| N#Cc1cccc(-c2nc(N)c3cc(C(O)c4ccccn4)sc3n2)c1 (stereo not drawn) [Example 15, 3-[4-Amino-6-(hydroxy-pyridin-2-yl-methyl)-thieno[2,3-d]pyrimidin-2-yl]-benzonitrile] | 6.82 | 8.30 | 7.46 |
| COc1cccnc1C(O)c1cc2c(N)nc(-c3cccc(C#N)c3)nc2s1 (stereo not drawn) [Example 33, 3-{4-Amino-6-[hydroxy-(3-methoxy-pyridin-2-yl)-methyl]-thieno[2,3-d]pyrimidin-2-yl}-benzonitrile] | 7.07 | 8.35 | 8.18 |
| COc1ncccc1C(O)c1cc2c(N)nc(-c3cccc(C#N)c3)nc2s1 (stereo not drawn) [Example 9, 3-{4-Amino-6-[hydroxy-(2-methoxy-pyridin-3-yl)-methyl]-thieno[2,3-d]pyrimidin-2-yl}-benzonitrile] | 6.77 | 8.03 | 7.92 |
| N#Cc1cccc(-c2nc(N)c3cc(C(O)c4cccnc4Cl)sc3n2)c1 (stereo not drawn) [Example 30, 3-{4-Amino-6-[(2-chloro-pyridin-3-yl)-hydroxy-methyl]-thieno[2,3-d]pyrimidin-2-yl}-benzonitrile] | 6.46 | 7.79 | 7.21 |
| COc1cccnc1Cc1cc2c(N)nc(-c3cccc(C#N)c3)nc2s1 [Example 34, 3-[4-Amino-6-(3-methoxy-pyridin-2-ylmethyl)-thieno[2,3-d]pyrimidin-2-yl]-benzonitrile] | 7.58 | 8.91 | 7.70 |
| N#Cc1cccc(-c2nc(N)c3cc(C(O)c4ccncc4Cl)sc3n2)c1 (stereo not drawn) [Example 21, 3-{4-Amino-6-[(3-chloro-pyridin-4-yl)-hydroxy-methyl]-thieno[2,3-d]pyrimidin-2-yl}-benzonitrile] | 6.38 | 7.91 | 7.36 |
